Source: patent publication US20240165089A1, “METHOD FOR TREATING MYOPIA WITH VINPOCETINE” (EYE HOSPITAL, WENZHOU MEDICAL UNIVERSITY, priority 2021, published 2024)
≈ marks a conversion by molar mass, not a printed value. Where “and” joins values, the source holds several entries; their conditions need not be identical. Equal values may be shown once. Read-outs that look alike come from different tables or passages of the source.

Legend:
[1] = system: choroid of LIM guinea pigs; assay: choroidal thickness and blood flow by OCTA, LIM group; type: in vivo, guinea pig; details: 1 week, vs solvent injection group
Protocol: The choroidal blood flow parameters and choroidal thickness were measured for the animals in the above FDM group after 1 week of continuous administration and at the end of the 2 week-administration experiment and for the animals in the LIM group at the end of the 7 day-administration experiment. Choroidal blood flow parameters and thickness were measured using a modified commercial OCTA (Spectralis HRA+OCT, OCTA, Heidelberg, Germany) which is more suitable for animal eyeballs. Before the measurement, the guinea pigs were fully anesthetized (a mixture of ketamine hydrochloride 60 mg/kg and xylazine hydrochloride 9 mg/kg, intraperitoneally injected), and then the guinea pig OCTA images were obtained, and the measurement results were quantified through a self-written program (MatLab R2017a, MathWorks). Real-time quantitative detection of choroidal blood flow and thickness in guinea pigs was achieved (Sen Zhang, Invest Ophthalmol Vis Sci. 2019 Jul. 1; 60(8):3074-3083).
Vinpocetine is known to improve blood circulation. The inventors used the method of example 1 to detect changes of indicator signals of choroidal thickness ChT and choroidal blood flow ChBP of FDM (1 week and 2 weeks of administration) and LIM (1 week of administration) at different time points during the administration cycle.

[2] = system: form deprivation myopia model of guinea pigs; assay: FDM guinea pig model, eye drops (non-invasive administration); type: in vivo; details: for refraction difference between the eyes: FDM
Protocol: The purpose of this experiment was to evaluate the effect of vinpocetine on myopia through non-invasive administration. All tested drugs were formulated into eye drops. […] No other active substances or excipients were added to the above eye drops.

[3] = cited from earlier work
rats = details: rat, in vivo, cited from earlier work
[4] = vinpocetine 5 μM eye drops, 2 weeks
[5] = vinpocetine 5 μM eye drops, 2 weeks (rounded and actual value)

With `CCOC(=O)C1=C[C@]2(CC)CCCN3CCc4c(n1c1ccccc41)[C@@H]32` [vinpocetine] the “choroidal thickness ChT” value ([1]; not statistically significant) was “only slightly increased”, the “choroidal blood perfusion ChBP” value ([1]; p=0.766) was “only slightly increased” and the “refraction difference between the eyes” value ([2]; vinpocetine 1 μM eye drops 25 μL twice a day, 2 weeks) was −4.81±1.72 D. The “refraction difference between the eyes” value ([2]; vinpocetine 5 μM eye drops 25 μL twice a day, 2 weeks) was −3.80±1.16 D, the refraction inhibition rate ([2]; vinpocetine 1 μM eye drops, 2 weeks) was 26.7% and the “inhibition rate for the axial length” value [2, 4] was 41.4%. For the same compound, the “inhibition rate for the vitreous chamber depth” value [2, 4] was 38.6%, the refraction inhibition rate [2, 4] was 42.1% and the “axial length difference between the eyes” value [2, 5] was 0.09±0.04 mm and 0.0925±0.0406 mm. For the same compound, the “vitreous chamber depth difference between the eyes” value [2, 5] was 0.09±0.04 mm and 0.0869±0.0448 mm, the solubility in water [3] was “almost insoluble in water” and the “solubility in 0.5% methylcellulose” value ([3]; room temperature) was 200 mg/mL (≈ 571 mM). For the same compound, the solubility in water ([3]; room temperature) was 0.0024 mg/mL (≈ 0.00685 mM), the toxicity findings (rats; 20 mg/kg/day) was “no obvious abnormality” and the toxicity findings (rats; 40 mg/kg) was “signs of weight loss and food intake reduction”. The LD50 (rats; po) was “approximately 500 mg/kg”.
